Values after ≈ are worked out from the molar mass of the structure shown.

A short description of the series: Solubility study of AVA-solid dispersions in distilled water. The series is classed as physicochemical. To be noted: thermodynamic from solid, shaking water bath 48 h. On the procedure: A solubility study for the prepared solid dispersions was conducted separately in distilled water, as described previously, with full details published (34). In screw-capped vials, 10 mL of distilled water was placed, and an excess amount of either the pure drug or the prepared solid dispersions was added. The vials were kept in a shaking water bath, for 48 h, in a thermostatically controlled shaking water bath (Model 1031; GFL Corporation, Burgwedel, Germany). Samples from the vial were obtained and were determined in triplicate using spectrophotometric assay at λmax 285 nm, and the data were expressed as the average ± the standard deviation. The AVA-solid dispersion with the highest water solubility was determined and selected for further investigations. Powder X-ray Diffraction (PXRD)

A word on the solubility: it is the concentration that dissolves in the medium under given conditions. Lower therefore signals a poorly soluble substance. As to `COc1ccc(CN=c2[nH]c(N3CCC[C@H]3CO)ncc2C(=O)NCc2ncccn2)cc1Cl` [AVA, Avanafil], the concentration in solution (solubility at 48 h) was 3 µg/mL (≈ 6.2 µM).

The values are drawn from US11648205B1, “Buccal formulation of avanafil with enhanced bioavailability and prolonged duration” (King Abdulaziz University, priority 2022, dated 2023).
